The subject of assay [1] is indicated HLA alleles. Briefly: Stability of GATA3 neoORF neoepitopes with the HLA alleles (Example 9, Table 4). The assay is classed as binding, human. The method, then:
(§1) Multiple peptides containing the neoepitopes in Table 4 below were expressed or loaded onto antigen presenting cells (APCs). Mass spectrometry was then performed and the affinity of the neoepitopes for the indicated HLA alleles and stability of the neoepitopes with the HLA alleles was determined.

In assay [2] the target is T1, HLA-A02:01 (Homo sapiens, UniProt P04439, D140Y/D185E/D98H/E176V/E277Q/G131W/G231S/I119V/I121R/I166T/I218V/L300P/L318F/N151K/N90K/P208A/P217A/Q86G/Q94H/R138H/R169H/T345S). Briefly: Affinity measurements, competition with radiolabeled peptide (Example 20). The assay is classed as binding.
The target of assay [3] is T1, HLA-A02:01. Briefly: Stability measurements, pMHC-I dissociation with 125I light chain (Example 20). The assay is classed as binding. The method, then:
(§2) To measure the binding stability of peptides to Class I MHC, synthetic genes encoding biotinylated MHC-I heavy and light chains are expressed in E. coli and purified from inclusion bodies using standard methods. […] These reactions were carried out in streptavidin coated microplates to bind the biotinylated MHC-I heavy chains to the surface and allow measurement of radiolabeled light chain to monitor complex formation. Dissociation was initiated by addition of higher concentrations of unlabeled light-chain and incubation at 37° C. Stability was defined as the length of time in hours it takes for half of the complexes to dissociate, as measured by scintillation counts. Duplicate measurements were performed. The average of the two measurements was taken as the stability.

For assay [4], the target named is indicated HLA alleles. Briefly: Affinity of GATA3 neoORF neoepitopes for the indicated HLA alleles (Example 9, Table 4). The assay is classed as binding, human. As to conditions: read-out: Observed MHC affinity. The method, then:
as §1

The conditions of assay [5]: ovarian carcinoma patients, poly-ICLC with NYESO-1 peptide vaccine (in addition to Montanide), phase 1 study; cited from earlier work.
Assay [6] addresses T2, indicated HLA alleles (Homo sapiens, UniProt P04439). Briefly: Affinity of GATA3 neoORF neoepitopes for the indicated HLA alleles (Example 9, Table 4). The assay is classed as binding. How it is done:
as §1

Assay [7] concerns the target indicated HLA alleles. Briefly: Affinity of mutant BTK neopeptides for indicated HLA alleles. Format: binding, human. How it is done: (§3) Multiple peptides containing neoepitopes in the table below were either expressed or loaded onto antigen presenting cells. Mass spectrometry was then performed and the affinity of the neoepitopes for indicated HLA alleles were determined, and the stability of the neoepitopes with the HLA alleles were determined.

For assay [8], the target named is T2, indicated HLA alleles. Described as above. Format: binding. How it is done:
as §3

Assay [9] has as its system indicated HLA alleles. Briefly: Stability of mutant BTK neopeptides with the HLA alleles. The assay is classed as binding, human. How it is done: as §3
Assay [10] deals with T2, indicated HLA alleles. The assay is described as above. Format: binding. The conditions noted are these: BTK, C481S; HLA A03.01. The method, then:
as §3

In assay [11] the target is T3, indicated HLA alleles (Homo sapiens, UniProt P01889). Briefly: Affinity of mutant BTK neopeptides for indicated HLA alleles. The assay is classed as binding. How it is done: as §3
Assay [12] concerns the target T4, HLA-B07:02 (Homo sapiens, UniProt P01889). Briefly: Detection of GATA3 neoORF peptides by mass spectrometry (Example 8). Format: cell-based. As to conditions: 293T cells transduced with GATA3 neoORF lentiviral vector, expressing HLA-B07:02; eluted peptides, MS/MS.
In assay [13] the target is T4, HLA-B07:02. Briefly: Stability measurements, pMHC-I dissociation with 125I light chain (Example 20). The assay is classed as binding. The method, then: as §2
Assay [14] concerns the target T3, indicated HLA alleles. Briefly: Affinity of GATA3 neoORF neoepitopes for the indicated HLA alleles (Example 9, Table 4). Format: binding. The method, then: as §1
Assay [15] has as its target T4, HLA-B07:02. Briefly: Affinity measurements, competition with radiolabeled peptide (Example 20). The assay is classed as binding.

Where no end group is shown, it is not given here.

In general, IC50 refers to the concentration at which inhibition is half-maximal. For TLQRSSLWCL, the “Observed MHC stability” value with indicated HLA alleles [1] (Allele A02.01) is 0.5 h. Also, the IC50 at HLA-A02:01 [2] worked out at 281 nM. In addition, at HLA-A02:01 [3], the “Experiment 1 half-life” value worked out at 0.5 h and the “Experiment 2 half-life” value came out at 0.5 h. At HLA-A02:01 [3] (average of experiments 1 and 2), the Average half-life is 0.5 h. In addition, the Kd at indicated HLA alleles [4] (Allele A02.01) amounted to 118 nM.

As to poly-ICLC, the “patients showing induction of CD4+ and CD8+ T cell and antibody responses to the peptide” value in assay [5] was > 90%.

For the compound VLWTTPPLQH, the figures for the “Observed MHC stability” value in the assay with indicated HLA alleles [1] (Allele A03:01) and with indicated HLA alleles [1] (Allele A11:01) were 0.3 h and 0 h, respectively. The figures for the Kd at indicated HLA alleles [4] (Allele A11:01) and at indicated HLA alleles [6] were 4540 nM and 16 nM, respectively.

With `CSCC[C@H](N)C(=O)N[C@@H](C)C(=O)N[C@@H](CC(N)=O)C(=O)NCC(=O)N[C@@H](CO)C(=O)N[C@@H](CC(C)C)C(=O)N[C@@H](CC(C)C)C(=O)N[C@@H](CC(N)=O)C(=O)N[C@@H](Cc1ccc(O)cc1)C(=O)O`, the Kd on indicated HLA alleles [7] (BTK, C481S, HLA A01.01) worked out at 439 nM; on indicated HLA alleles [7] (BTK, C481S, HLA A11.01), 536 nM; on indicated HLA alleles [8], 35.6 nM. For the same compound, the “Stability (1/2 hr)” value with indicated HLA alleles [9] (BTK, C481S, HLA A01.01) came out at 0.2164 h; at indicated HLA alleles [10], 0.238 h.

Regarding YMANGSLLNY, the Kd is 13.2 nM at indicated HLA alleles [7] (BTK, C481S, HLA A01.01); 974 nM on indicated HLA alleles [7] (BTK, C481S, HLA A11.01); 95.9 nM at indicated HLA alleles [8]. Moreover, the “Stability (1/2 hr)” value in the assay on indicated HLA alleles [9] (BTK, C481S, HLA A01.01) was 0.8662 h; on indicated HLA alleles [10], 0.2791 h.

As to `CSCC[C@H](NC(=O)[C@H](CCC(=O)O)NC(=O)[C@H](CCCNC(=N)N)NC(=O)[C@H](CC(C)C)NC(=O)[C@H](Cc1ccc(O)cc1)NC(=O)[C@H](CC(N)=O)NC(=O)[C@H](CC(C)C)NC(=O)[C@H](CC(C)C)NC(=O)[C@@H](N)CO)C(=O)O`, the Kd was 67.7 nM at indicated HLA alleles [7] (BTK_C481S, HLA A02.01); 960 nM on indicated HLA alleles [7] (BTK_C481S, HLA B08.01); 866 nM at indicated HLA alleles [11]. For the same compound, the “Stability (1/2 hr)” value in the assay with indicated HLA alleles [9] (BTK_C481S, HLA A02.01) was 3.044 h; with indicated HLA alleles [9] (BTK_C481S, HLA B07.02), 0 h; in the assay on indicated HLA alleles [9] (BTK_C481S, HLA B08.01), 0 h.

Regarding KPKRDGYMFL, in the assay with indicated HLA alleles [1] (Allele B07:02), the “Observed MHC stability” value stood at 3.3 h. The “detected by mass spectrometry” value on HLA-B07:02 [12] is “detected”. Further, on HLA-B07:02 [13], the “Experiment 1 half-life” value is 3.3 h and the “Experiment 2 half-life” value stood at 3.3 h. Also, the Average half-life at HLA-B07:02 [13] (average of experiments 1 and 2) came to 3.3 h. Besides, the Kd at indicated HLA alleles [14] was found to be 98 nM. The IC50 at HLA-B07:02 [15] worked out at 115 nM.

Source of the values: US20210275657A1, “NEOANTIGENS AND USES THEREOF” (BioNTech US Inc., priority 2018, published 2021).
